# Results from ChEMBL document CHEMBL1158634, “Towards Gram-positive antivirulence drugs: new inhibitors of Streptococcus agalactiae Stk1” (Bioorg Med Chem Lett, 2010).
# Assay: Inhibition of Streptococcus agalactiae Stk1 preincubated for 30 mins
row,IC50,Structure (SMILES)
1,66 µM,Cn1cnc2c(NCCCO)nc(N3CCOCC3)nc21
2,48 µM,Cn1cnc2c(NCCCO)nc(NCc3ccccc3)nc21
3,> 300 µM,OCCCNc1nc(Cl)nc2[nH]cnc12
4,39 µM,Cn1cnc2c(NCCCO)nc(-c3cccc(C(=O)O)c3)nc21
5,12 µM,Cn1cnc2c(NCCCO)nc(-c3cccc(NC(N)=O)c3)nc21
6,66 µM,Cn1cnc2c(NCCCO)nc(Cl)nc21
7,175 µM,CCn1cnc2c(NCCCO)nc(Cl)nc21
8,> 300 µM,CC(C)n1cnc2c(NCCCO)nc(Cl)nc21
9,12 µM,Cn1cnc2c(NCCCO)nc(-c3ccccc3)nc21
10,34 µM,Cn1cnc2c(NCCCO)nc(-c3cccnc3)nc21
11,110 µM,Cn1cnc2c(NCCCO)nc(N3CCNCC3)nc21
12,3 µM,Cn1cnc2c(NCCCO)nc(-c3cccc(Cl)c3)nc21
13,13 µM,Cn1cnc2c(NCCCO)nc(-c3cccc(N)c3)nc21
14,26 µM,Cn1cnc2c(NCCCO)nc(Nc3ccccc3)nc21
15,3 µM,Cn1cnc2c(NCCCO)nc(-c3cccc([N+](=O)[O-])c3)nc21
16,4 µM,Cn1cnc2c(NCCCO)nc(-c3cccc(C(F)(F)F)c3)nc21

# Further lines, the compound ahead of its results:
row,Structure (SMILES),IC50
1,Cn1cnc2c(NCCCO)nc(-c3cccc(NC(=O)NCc4ccccc4)c3)nc21,7.5 µM
2,Cc1cccc(NC(=O)Nc2cccc(-c3nc(NCCCO)c4ncn(C)c4n3)c2)c1,0.2 µM
3,CCCNC(=O)Nc1cccc(-c2nc(NCCCO)c3ncn(C)c3n2)c1,18 µM
4,Cn1cnc2c(NCCCO)nc(-c3cccc(NC(=O)Nc4ccc5c(c4)OCO5)c3)nc21,0.28 µM
5,Cn1cnc2c(NCCCO)nc(-c3cccc(NC(=O)Nc4cccc(Cl)c4)c3)nc21,0.32 µM
6,CN(CCCO)c1nc(-c2cccc(NC(=O)Nc3cccc(Cl)c3)c2)nc2c1ncn2C,> 300 µM
7,Cn1cnc2c(NCCCO)nc(-c3cccc(NC(=O)Nc4cccc(C#N)c4)c3)nc21,0.49 µM
8,Cn1cnc2c(NCCCO)nc(-c3cccc(NC(=O)Nc4ccccc4)c3)nc21,1 µM
9,Cn1cnc2c(NCCCO)nc(-c3cccc(NC(=O)Nc4cccc(S(C)(=O)=O)c4)c3)nc21,0.64 µM
10,COc1ccc(NC(=O)Nc2cccc(-c3nc(NCCCO)c4ncn(C)c4n3)c2)cc1,0.63 µM
11,Cn1cnc2c(NCCCO)nc(-c3cccc(NC(=O)Nc4cccc(N)c4)c3)nc21,0.73 µM
12,COCCCNc1nc(-c2cccc(NC(=O)Nc3cccc(Cl)c3)c2)nc2c1ncn2C,0.28 µM
13,Cn1cnc2c(NCCO)nc(-c3cccc(NC(=O)Nc4cccc(Cl)c4)c3)nc21,0.32 µM
14,Cn1cnc2c(NCCCN)nc(-c3cccc(NC(=O)Nc4cccc(Cl)c4)c3)nc21,0.48 µM
15,Cn1cnc2c(NCCCO)nc(-c3cccc(NC(=O)Nc4cc(Cl)cc(Cl)c4)c3)nc21,0.16 µM
16,Cn1cnc2c(NCCCO)nc(-c3cccc(NC(=O)Nc4ccsc4)c3)nc21,2 µM
17,CCCNc1nc(-c2cccc(NC(=O)Nc3cccc(Cl)c3)c2)nc2c1ncn2C,0.3 µM
18,Cn1cnc2c(N)nc(-c3cccc(NC(=O)Nc4cccc(Cl)c4)c3)nc21,1.3 µM
19,Cn1cnc2c(NCCCO)nc(-c3cccc(NS(C)(=O)=O)c3)nc21,15 µM
20,CC(=O)Nc1cccc(NC(=O)Nc2cccc(-c3nc(NCCCO)c4ncn(C)c4n3)c2)c1,0.93 µM
21,Cn1cnc2c(NCCCO)nc(-c3cccc(NC(=O)Nc4cccnc4)c3)nc21,0.96 µM
22,Cn1cnc2c(NCCCO)nc(-c3cccc(NC(=O)Nc4ccccc4Cl)c3)nc21,16 µM
23,Cn1cnc2c(NCCCO)nc(-c3cccc(NC(=O)Nc4c(Cl)cccc4Cl)c3)nc21,59 µM
24,CC(=O)Nc1cccc(-c2nc(NCCCO)c3ncn(C)c3n2)c1,18 µM
25,Cn1cnc2c(NCCCO)nc(-c3cccc(NC(=O)Nc4ccc(Cl)cc4)c3)nc21,1.6 µM
26,Cn1cnc2c(NCCCO)nc(-c3cccc(-c4ccccc4)c3)nc21,4 µM
27,Cn1cnc2c(NCCCO)nc(-c3cccc(NS(=O)(=O)Cc4ccccc4)c3)nc21,22 µM
28,Cn1cnc2c(NCCCO)nc(-c3cccc(C(=O)NCCc4cccnc4)c3)nc21,38 µM
29,Cn1cnc2c(NCCCO)nc(-c3cccc(C(=O)N4CCC(c5ccccc5)CC4)c3)nc21,174 µM
30,Cn1cnc2c(NCCCO)nc(-c3cccc(C(=O)NCCCc4ccccc4)c3)nc21,> 300 µM
